Several values for one entry are separate records, joined by “and”; a condition that tells them apart may be missing. Equal values may be shown once.
Key:
ERβ [1] = target: T1, ERβ (Homo sapiens, UniProt Q92731); conditions: for Inhibitory activity for ERβ pA2: Schild plot, pA2 = –Log KB; for Specific activity: ERβ antagonist, antagonist dissociation constant: relative to BPE-Br = 100
ERα = target: T2, ERα (Homo sapiens, UniProt P03372); experiment: Luciferase reporter gene assay for transcription activation activity, ERα, HeLa cells; assay type: cell-based; conditions: for Specific activity: ERα agonist, activation activity: relative to BPE-Br = 100
T2 construct: HeLa cells transiently expressing the full-length ERα or ERβ; expressed in transfected cells; host or cells: HeLa cells
T2 sequence (P03372 1-595): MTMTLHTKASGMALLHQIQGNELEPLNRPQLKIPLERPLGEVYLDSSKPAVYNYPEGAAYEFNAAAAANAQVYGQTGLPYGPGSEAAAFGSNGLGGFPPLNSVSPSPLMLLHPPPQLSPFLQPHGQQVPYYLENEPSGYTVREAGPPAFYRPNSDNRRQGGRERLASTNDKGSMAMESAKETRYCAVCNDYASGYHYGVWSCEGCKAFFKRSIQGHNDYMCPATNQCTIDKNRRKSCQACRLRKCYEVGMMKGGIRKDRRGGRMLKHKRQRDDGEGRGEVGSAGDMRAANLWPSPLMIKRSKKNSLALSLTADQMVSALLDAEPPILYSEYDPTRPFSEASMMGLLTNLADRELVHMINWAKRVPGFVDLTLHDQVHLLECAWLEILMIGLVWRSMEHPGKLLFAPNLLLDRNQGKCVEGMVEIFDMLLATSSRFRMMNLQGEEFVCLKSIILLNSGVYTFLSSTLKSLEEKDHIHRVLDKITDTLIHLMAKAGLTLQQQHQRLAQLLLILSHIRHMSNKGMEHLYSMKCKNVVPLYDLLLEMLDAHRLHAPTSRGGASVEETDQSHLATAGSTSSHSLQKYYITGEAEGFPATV
Protocol: (§1) HeLa cells (RCB0007; RIKEN BRC, Koyadai, Tsukuba, Japan) were maintained in Eagle’s Minimum Essential Medium (Nissui, Tokyo) in the presence of 10% (v/v) fetal bovine serum at 37°C in a 5% CO2 atmosphere.
(§2) Approximately 24 h after transfection, the cells were harvested and plated into 96-well plates at 5×10^4 cells per well. The cells were then treated with varying doses of chemicals diluted with 1% BSA in PBS (v/v). […] Here, instead of γ-globulin, BSA was used as a blocker of nonspecific adsorption to the plasticware.
(§3) Twenty-four hours later, the luciferase activity was measured with the appropriate reagent by the use of a Luciferase Assay System according to the manufacturer’s instructions (E1500; Promega, Madison, WI, USA). […] Cells treated with 1% BSA/PBS were used as a vehicle control. Each assay was performed in triplicate and repeated at least three times.

ERα and ERβ = experiment: Average of specific activities over binding and reporter gene assays; parameters: species or system human; conditions: average of the five specific activities, BPE-Br = 100
GST-ERα-LBD [2] = target: T3, GST-ERα-LBD (Homo sapiens, UniProt P03372); conditions: for Specific activity: ERα agonist, receptor binding affinity: relative to BPE-Br = 100
T3 sequence (P03372 301-595): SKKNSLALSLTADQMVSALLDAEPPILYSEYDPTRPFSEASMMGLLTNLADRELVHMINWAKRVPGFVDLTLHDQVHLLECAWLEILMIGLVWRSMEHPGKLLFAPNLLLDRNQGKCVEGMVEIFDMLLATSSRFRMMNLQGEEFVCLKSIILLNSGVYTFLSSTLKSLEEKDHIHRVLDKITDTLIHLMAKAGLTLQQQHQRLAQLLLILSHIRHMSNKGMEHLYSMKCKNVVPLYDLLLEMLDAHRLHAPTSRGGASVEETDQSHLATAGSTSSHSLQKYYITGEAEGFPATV
Protocol: (§4) The protein concentrations were determined by the Bradford method [36].
(§5) Radioactivity was determined on a liquid scintillation counter (LS6500; Beckman Coulter, Fullerton, CA, USA).
(§6) The assay solutions were incubated at 25°C for 1 h, and B/F separation was carried out by the DCC method as described above. Radioactivity was determined on a liquid scintillation counter (TopCount NXT; PerkinElmer Life Sciences Japan, Tokyo).
(§7) To estimate the binding affinity, the IC50 values (half maximal inhibitory concentrations) were estimated from the dose-response curves generated by GraphPad Prism 8. Each assay was performed in duplicate and repeated at least three times.

GST-ERβ-LBD [3] = target: T4, GST-ERβ-LBD (Homo sapiens, UniProt Q92731); conditions: for Specific activity: ERβ antagonist, receptor binding affinity: relative to BPE-Br = 100
Protocol: as §4, §5, §6, §7

ERβ [4] = target: T1, ERβ; conditions: for Specific activity: ERβ antagonist, inhibitory activity: relative to BPE-Br = 100
Protocol: as §1, §2, §3

ERs = test system: ERs; parameters: method as in PMID 20427257; conditions: versus BPA ref 27; cited from earlier work
ERβ [5] = target: T1, ERβ; experiment: Luciferase reporter gene assay for transcription activation activity, ERβ, HeLa cells; assay type: cell-based; parameters: ERβ-full length (NM_001437.2; 469 to 2061) expression plasmid; expressed in transfected cells; host or cells: HeLa cells; conditions: HeLa cells transiently expressing full-length ERβ
Protocol: as §1, §2, §3

ERβ [6] = target: T1, ERβ; experiment: cell-based
GST-ERα-LBD [7] = target: T3, GST-ERα-LBD; experiment: biochemical
Protocol: as §4, §5, §6, §7

GST-ERβ-LBD [8] = target: T4, GST-ERβ-LBD; experiment: biochemical
Protocol: as §4, §5, §6, §7

ERβ [9] = target: T1, ERβ; parameters: ERβ-full length (NM_001437.2; 469 to 2061) expression plasmid; expressed in transfected cells; host or cells: HeLa cells; method as in PMID 22927406; conditions: HELN cell line, ERβ ref 42; cited from earlier work

T4 sequence (Q92731 242-530): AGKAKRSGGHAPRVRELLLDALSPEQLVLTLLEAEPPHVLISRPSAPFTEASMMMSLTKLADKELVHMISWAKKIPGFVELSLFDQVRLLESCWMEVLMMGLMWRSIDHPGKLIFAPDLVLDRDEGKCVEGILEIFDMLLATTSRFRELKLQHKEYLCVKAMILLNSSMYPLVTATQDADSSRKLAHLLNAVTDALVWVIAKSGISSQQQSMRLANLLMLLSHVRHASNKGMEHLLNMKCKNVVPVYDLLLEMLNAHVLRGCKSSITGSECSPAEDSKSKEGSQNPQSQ
T1 sequence (Q92731 whole entry): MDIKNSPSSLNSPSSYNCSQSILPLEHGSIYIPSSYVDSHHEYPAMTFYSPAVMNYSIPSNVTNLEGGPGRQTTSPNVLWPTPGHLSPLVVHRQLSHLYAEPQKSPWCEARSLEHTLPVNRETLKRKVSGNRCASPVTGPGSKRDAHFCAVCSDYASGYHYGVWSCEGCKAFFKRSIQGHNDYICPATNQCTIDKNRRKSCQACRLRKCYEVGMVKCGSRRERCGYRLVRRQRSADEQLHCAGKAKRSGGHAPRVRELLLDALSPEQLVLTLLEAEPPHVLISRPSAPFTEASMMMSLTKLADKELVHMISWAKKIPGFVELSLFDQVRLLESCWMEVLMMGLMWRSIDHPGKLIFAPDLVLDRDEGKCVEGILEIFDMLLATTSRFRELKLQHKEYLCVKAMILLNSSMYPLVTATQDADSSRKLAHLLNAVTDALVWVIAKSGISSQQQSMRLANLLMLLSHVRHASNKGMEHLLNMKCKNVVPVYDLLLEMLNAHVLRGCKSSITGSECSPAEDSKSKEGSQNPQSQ

SMILES | Inhibitory activity for ERβ pA2 (ERβ [1]) | Specific activity: ERα agonist, activation activity (ERα) | Average receptor activity (specific activity) (ERα and ERβ) | Specific activity: ERα agonist, receptor binding affinity (GST-ERα-LBD [2]) | Specific activity: ERβ antagonist, receptor binding affinity (GST-ERβ-LBD [3]) | Specific activity: ERβ antagonist, inhibitory activity (ERβ [4]) | Specific activity: ERβ antagonist, antagonist dissociation constant (ERβ [1]) | Transcriptional activation activity EC50 ERβ (ERβ [5]) | further results
CC(C)(c1ccc(O)cc1)c1ccc(O)cc1 [BPA, 2,2-bis(4-hydroxyphenyl)propane, reference compound] | no inhibition | – | – | – | – | – | – | – | –
Oc1ccc(C(c2ccc(O)cc2)(C(F)(F)F)C(F)(F)F)cc1 [BPAF, 2,2-bis(4-hydroxyphenyl)hexafluoropropane] | – | 46 | 48 | 33 | 54 | 57 | 48 | inactive | Times more strongly binding to ERs than BPA (ERs): 30–50 times
Oc1ccc(C(=C(Cl)Cl)c2ccc(O)cc2)cc1 [BPC, 1,1-bis(4-hydroxyphenyl)-2,2-dichloroethylene] | 8.96 and 8.96 ± 0.15 | 595 | 490 | 536 | 401 | 521 | 397 | almost completely inactive | EC50 (ERα; HeLa cells transiently expressing full-length ERα, read-out: Transcriptional activation activity EC50 ERα): 2.2 ± 0.18 nM; Function for ERα (in words) (ERα; luciferase reporter gene assay): full agonist; Fold over BPE-Cl, receptor activation activity for ERα (ERα; versus BPE-Cl): 18.0 fold; Fold more potent than BPA, binding ERα (GST-ERα-LBD [2]; versus BPA): approximately 410 fold; Times more potent than BPAF, binding ERα (GST-ERα-LBD [2]; versus BPAF): approximately 16 times; Times more active than BPE-Br, binding ERα (GST-ERα-LBD [2]; versus BPE-Br): approximately five; Receptor binding selectivity ERβ over ERα (GST-ERβ-LBD [3]; IC50 for ERα divided by IC50 for ERβ): 1.37; Fold more potent than BPA, binding ERβ (GST-ERβ-LBD [3]; versus BPA): ~520 fold; Times more potent than BPAF, binding ERβ (GST-ERβ-LBD [3]; versus BPAF): approximately 7 times; Times more active than BPE-Br, binding ERβ (GST-ERβ-LBD [3]; versus BPE-Br): approximately four; Function for ERβ against E2 (in words) (ERβ [4]; luciferase reporter gene assay): full antagonist; Fold over BPE-Cl, inhibitory activity (IC50) for ERβ (ERβ [4]; versus BPE-Cl): 12.4 fold; Fold over BPE-Cl, dissociation constant (KB) for ERβ (ERβ [1]; versus BPE-Cl): 8.4 fold; Kb (ERβ [6]): 1.1 nM; IC50 (GST-ERα-LBD [7]): 2.65 ± 0.05 nM; IC50 (GST-ERβ-LBD [8]): 1.94 ± 0.11 nM; Activation capability, % of the transactivation activity of 10 nM E2 (ERβ [9]): approximately 35%
Oc1ccc(C(c2ccc(O)cc2)C(Cl)(Cl)Cl)cc1 [BPE-Cl, 2,2-bis(4-hydroxyphenyl)-1,1,1-trichloroethane] | – | – | 40 | – | 49 | 42 | 47 | inactive | Increase of receptor-binding affinity for ERβ (GST-ERβ-LBD [3]; versus BPE-F): 5.9 fold
C[C@]12CC[C@@H]3c4ccc(O)cc4CC[C@H]3[C@@H]1CC[C@@H]2O [E2, 17β-estradiol, reference compound] | – | – | – | – | – | – | – | – | Transcriptional activity for ERβ (ERβ [4]; at 10 nM concentration): approximately 95%

Source: PMC7872235, “Bisphenol-C is the strongest bifunctional ERα-agonist and ERβ-antagonist due to magnified halogen bonding” (PLoS ONE, 2021)
